Assay results taken from patent US20110313156A1 (BOEHRINGER INGELHEIM INTERNATIONAL GMBH, priority 2008, published 2011).

Molecular target: T1, His6-PDK1 (aa 52-556) (Homo sapiens, UniProt O15530)
T1 construct: 15 μL His6-PDK1 (aa 52-556) 3.33 ng/well); host or cells: baculovirus-infected insect cells
T1 sequence (O15530 52-556): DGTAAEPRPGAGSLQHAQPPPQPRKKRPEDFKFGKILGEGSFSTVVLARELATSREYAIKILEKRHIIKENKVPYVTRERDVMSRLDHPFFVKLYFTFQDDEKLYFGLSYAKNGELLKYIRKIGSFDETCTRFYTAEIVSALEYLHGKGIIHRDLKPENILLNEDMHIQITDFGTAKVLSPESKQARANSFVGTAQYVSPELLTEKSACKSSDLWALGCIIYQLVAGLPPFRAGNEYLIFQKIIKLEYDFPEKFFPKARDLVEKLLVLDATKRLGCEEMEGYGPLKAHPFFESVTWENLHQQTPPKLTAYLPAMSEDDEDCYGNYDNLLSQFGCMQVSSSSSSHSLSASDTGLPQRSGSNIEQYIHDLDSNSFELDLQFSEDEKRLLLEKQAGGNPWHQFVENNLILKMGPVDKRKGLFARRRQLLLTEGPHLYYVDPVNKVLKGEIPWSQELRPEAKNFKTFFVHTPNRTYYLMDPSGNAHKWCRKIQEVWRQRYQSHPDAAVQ
Test: PDK1 kinase assay III (with Tween 20)
Type: biochemical
Conditions: compound at 10 μM; PDK1 kinase assay III (values without asterisk); read-out: % CTL (residual activity of the enzyme relative to DMSO control)
How it was run: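 Started with ATP, incubated 90 min at ambient temperature, then stopped with phosphoric acid. Asterisked values come from assay II (24 h or 5 min incubation).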

SMILES | remaining activity at 10 µM
O=C1Nc2cc(C#CCNC(=O)c3cncn(Cc4ccc(F)c(F)c4)c3=O)ccc2/C1=C/c1cnc[nH]1 [I-44, 1-(3,4-difluorobenzyl)-N-{3-[(3Z)-3-(1H-imidazol-5-ylmethylidene)-2-oxo-2,3-dihydro-1H-indol-6-yl]prop-2-yn-1-yl}-6-oxo-1,6-dihydropyrimidine-5-carboxamide] | 15.6%
Cc1c(C(=O)NC/C=C/c2ccc3c(c2)NC(=O)/C3=C\c2ncc[nH]2)c(=O)n(Cc2ccc(F)c(F)c2)n1C [I-41, 2-(3,4-difluorobenzyl)-N-{(2E)-3-[(3Z)-3-(1H-imidazol-2-ylmethylidene)-2-oxo-2,3-dihydro-1H-indol-6-yl]prop-2-en-1-yl}-1,5-dimethyl-3-oxo-2,3-dihydro-1H-pyrazole-4-carboxamide] | 16.6%
Cc1c(C(=O)NC/C=C/c2ccc3nc(Nc4ccc(C(=O)N(C)C5CCN(C)CC5)c(Cl)c4)ncc3c2)c(=O)n(Cc2ccc(F)c(F)c2)n1C | 15.8%
Cc1c(C(=O)NC/C=C/c2ccc3nc(Nc4ccccn4)ncc3c2)c(=O)n(Cc2ccc(F)c(F)c2)n1C | 22.7%
COC(=O)c1ccc(Nc2ncc3cc(/C=C/CNC(=O)c4c(C)n(C)n(Cc5ccc(F)c(F)c5)c4=O)ccc3n2)cc1 | 20.7%
NCCOc1cc(C#CCNC(=O)c2cncn(Cc3ccc(F)c(F)c3)c2=O)cc2cnc(Nc3ccccc3)nc12 | 13.7%
COc1cc(Nc2ncc3cc(/C=C/CNC(=O)c4c(C)n(C)n(Cc5ccc(F)c(F)c5)c4=O)ccc3n2)ccc1C(=O)NC1CCN(C)CC1 | 10.2%
NCc1[nH]cnc1/C=C1\C(=O)Nc2cc(/C=C/CNC(=O)c3cncn(Cc4ccc(F)c(F)c4)c3=O)ccc21 [I-49, N-{(2E)-3-[(3Z)-3-{[5-(aminomethyl)-1H-imidazol-4-yl]methylidene}-2-oxo-2,3-dihydro-1H-indol-6-yl]prop-2-en-1-yl}-1-(3,4-difluorobenzyl)-6-oxo-1,6-dihydropyrimidine-5-carboxamide] | 12.6%
O=C1Nc2cc(/C=C/CNC(=O)c3cc(Cl)nn(Cc4ccc(F)c(F)c4)c3=O)ccc2/C1=C/c1cnc[nH]1 [I-33, 6-chloro-2-(3,4-difluorobenzyl)-N-{(2E)-3-[(3Z)-3-(1H-imidazol-5-ylmethylidene)-2-oxo-2,3-dihydro-1H-indol-6-yl]prop-2-en-1-yl}-3-oxo-2,3-dihydropyridazine-4-carboxamide] | 12%
O=C(NC/C=C/c1ccc2nc(Nc3ccncc3)ncc2c1)c1cncn(Cc2ccc(F)c(F)c2)c1=O | 12.1%
CN1CCC(NC(=O)c2ccc(Nc3ncc4cc(/C=C/CNC(=O)c5cncn(Cc6ccc(F)c(F)c6)c5=O)ccc4n3)cc2Cl)CC1 | 22.4%
COc1cc(Nc2ncc3cc(/C=C/CNC(=O)c4cncn(Cc5ccc(F)c(F)c5)c4=O)ccc3n2)ccc1C(=O)NC1CCN(C)CC1 | 29%
Cc1c(C(=O)NC/C=C/c2cc(OCCN)c3nc(Nc4ccc(N5CCOCC5)cc4)ncc3c2)c(=O)n(Cc2ccc(F)c(F)c2)n1C | 13%
O=C1Nc2cc(/C=C/CNC(=O)c3cncn(Cc4ccc(F)c(F)c4)c3=O)ccc2/C1=C/c1cnc[nH]1 [I-2, 1-(3,4-difluorobenzyl)-N-{(2E)-3-[(3Z)-3-(1H-imidazol-5-ylmethylidene)-2-oxo-2,3-dihydro-1H-indol-6-yl]prop-2-en-1-yl}-6-oxo-1,6-dihydropyrimidine-5-carboxamide] | 12.2%
Cc1c(C(=O)NC/C=C/c2ccc3nc(Nc4ccc(C(=O)N(C)C5CCN(C)CC5)c(F)c4)ncc3c2)c(=O)n(Cc2ccc(F)c(F)c2)n1C | 13.7%
COc1cc(Nc2ncc3cc(C#CCNC(=O)c4c(C)n(C)n(Cc5ccc(F)c(F)c5)c4=O)ccc3n2)ccc1C(=O)NC1CCN(C)CC1 | 15%
Cc1nc(/C=C2\C(=O)Nc3cc(/C=C/CNC(=O)c4cncn(Cc5ccc(F)c(F)c5)c4=O)ccc32)c[nH]1 [I-35, 1-(3,4-difluorobenzyl)-N-[(2E)-3-{(3Z)-3-[(2-methyl-1H-imidazol-4-yl)methylidene]-2-oxo-2,3-dihydro-1H-indol-6-yl}prop-2-en-1-yl]-6-oxo-1,6-dihydropyrimidine-5-carboxamide] | 10.7%
NCCOc1cc(C#CCNC(=O)c2cncn(Cc3ccc(F)c(F)c3)c2=O)cc2cnc(Nc3ccc(N4CCOCC4)cc3)nc12 | 18.3%
CNC(=O)c1cccc(Nc2ncc3cc(C#CCNC(=O)c4c(C)n(C)n(Cc5ccc(F)c(F)c5)c4=O)ccc3n2)c1 | 19.3%

Now from value to compound:

remaining activity at 10 µM | SMILES
16.6% | Cc1c(C(=O)NC/C=C/c2ccc3nc(Nc4ccc(N(C)C5CCN(C)CC5)cc4)ncc3c2)c(=O)n(Cc2ccc(F)c(F)c2)n1C [IV-54, 2-(3,4-difluorobenzyl)-1,5-dimethyl-N-{(2E)-3-[2-({4-[methyl(1-methylpiperidin-4-yl)amino]phenyl}amino)quinazolin-6-yl]prop-2-en-1-yl}-3-oxo-2,3-dihydro-1H-pyrazole-4-carboxamide]
19.7% | CN(C)Cc1ccc(Nc2ncc3cc(/C=C/CNC(=O)c4cn(C)c(=O)n(Cc5ccc(F)c(F)c5)c4=O)ccc3n2)cc1 [IV-22, 3-(3,4-difluorobenzyl)-N-{(2E)-3-[2-({4-[(dimethylamino)methyl]phenyl}amino)-quinazolin-6-yl]prop-2-en-1-yl}-1-methyl-2,4-dioxo-1,2,3,4-tetrahydropyrimidine-5-carboxamide]
27.4% | Cc1c(C(=O)NC/C=C\c2ccc3cn[nH]c3c2)c(=O)n(Cc2ccc(F)c(F)c2)n1C [II-7, 2-(3,4-difluorobenzyl)-N-[(2Z)-3-(1H-indazol-6-yl)prop-2-en-1-yl]-1,5-dimethyl-3-oxo-2,3-dihydro-1H-pyrazole-4-carboxamide]
11.4% | CN1CCC(N(C)c2ccc(Nc3ncc4cc(C#CCNC(=O)c5cncn(Cc6ccc(F)c(F)c6)c5=O)ccc4n3)cc2)CC1 [III-30, 1-(3,4-difluorobenzyl)-N-{3-[2-({4-[methyl(1-methylpiperidin-4-yl)amino]phenyl}amino)quinazolin-6-yl]prop-2-yn-1-yl}-6-oxo-1,6-dihydropyrimidine-5-carboxamide]
14.7% | Cc1c(C(=O)NCC#Cc2ccc3nc(Nc4ccc(CN(C)C)cc4)ncc3c2)c(=O)n(Cc2ccccc2)n1C [III-18, 2-benzyl-N-{3-[2-({4-[(dimethylamino)methyl]phenyl}amino)quinazolin-6-yl]prop-2-yn-1-yl}-1,5-dimethyl-3-oxo-2,3-dihydro-1H-pyrazole-4-carboxamide]
13.5% | O=C(NCCO)c1ccc(Nc2ncc3cc(C#CCNC(=O)c4cncn(Cc5ccc(F)c(F)c5)c4=O)ccc3n2)cc1 [III-115]
14.5% | CN(C)Cc1ccc(Nc2ncc3cc(/C=C/CNC(=O)c4ccnn(Cc5ccc(F)c(F)c5)c4=O)ccc3n2)cc1 [IV-51, 2-(3,4-difluorobenzyl)-N-{(2E)-3-[2-({4-[(dimethylamino)methyl]phenyl}-amino)quinazolin-6-yl]prop-2-en-1-yl}-3-oxo-2,3-dihydropyridazine-4-carboxamide]
14.9% | CN(C)Cc1ccc(Nc2ncc3c(F)c(/C=C/CNC(=O)c4cncn(Cc5ccc(F)c(F)c5)c4=O)ccc3n2)cc1 [IV-33, 1-(3,4-difluorobenzyl)-N-{(2E)-3-[2-({4-[(dimethylamino)methyl]phenyl}amino)-5-fluoroquinazolin-6-yl]prop-2-en-1-yl}-6-oxo-1,6-dihydropyrimidine-5-carboxamide]
20% | Cc1cccc(Nc2ncc3cc(C#CCNC(=O)c4c(C)n(C)n(Cc5ccc(F)c(F)c5)c4=O)ccc3n2)c1 [III-79]
20.9% | CN(C)Cc1ccc(-c2cc3c(Nc4ccc(CNC(=O)c5cncn(Cc6ccc(F)c(F)c6)c5=O)cc4)ncnc3[nH]2)cc1 [IV-26, 1-(3,4-difluorobenzyl)-N-{4-[(6-{4-[(dimethylamino)methyl]phenyl}-7H-pyrrolo[2,3-d]pyrimidin-4-yl)amino]benzyl}-6-oxo-1,6-dihydropyrimidine-5-carboxamide]
19% | CCOC(=O)c1ccc(Nc2ncc3cc(C#CCNC(=O)c4cncn(Cc5ccc(F)c(F)c5)c4=O)ccc3n2)cc1 [III-39, ethyl-4-({6-[3-({[1-(3,4-difluorobenzyl)-6-oxo-1,6-dihydropyrimidin-5-yl]carbonyl}amino)prop-1-yn-1-yl]quinazolin-2-yl}amino)benzoate]
13.2% | CN1CCC(N(C)c2ccc(Nc3ncc4cc(C#CCNC(=O)c5ccnn(Cc6ccc(F)c(F)c6)c5=O)ccc4n3)cc2)CC1 [III-36, 2-(3,4-difluorobenzyl)-N-{3-[2-({4-[methyl(1-methylpiperidin-4-yl)amino]phenyl}amino)quinazolin-6-yl]prop-2-yn-1-yl}-3-oxo-2,3-dihydropyridazine-4-carboxamide]
17.9% | CN(C)Cc1ccc(Nc2ncc3cc(/C=C/CNC(=O)c4cc(Cl)nn(Cc5ccc(F)c(F)c5)c4=O)ccc3n2)cc1 [IV-39, 6-chloro-2-(3,4-difluorobenzyl)-N-{(2E)-3-[2-({4-[(dimethylamino)methyl]phenyl}amino)quinazolin-6-yl]prop-2-en-1-yl}-3-oxo-2,3-dihydropyridazine-4-carboxamide]
